In patent US20050238675A1, “Water-soluble formulations of fat soluble vitamins and pharmaceutical agents and their applications” (priority 2004, published 2005):

What was measured:
[1] = Solubility measurement of Co-Q10 in aqueous solution (HPLC assay); type: physicochemical
[2] = Solubility measurement of beta-carotene in water (0.45 micron filtration, UV-Vis spectrometry); type: physicochemical; conditions: beta-carotene admixed in edible oil, mixed with 10 ml DI water, 0.45 micron syringe filter
Experimental: Solubility Measurement: For comparison purpose, the solubility of beta-carotene was measured both in edible oil and in the micellized product of Example 1 described above. In these measurements a suitable amount of sample is mixed with 10 ml of DI water for at least 10 minutes. The solutions are filtered through 0.45 microns syringe filter. The beta-carotene contained in the sample after this filtration is measured by UV-Vis spectrometry. […] 100% of the originally admixed beta-carotene is measured to be present in the micellized filtered sample of Example 1.

| Co-Q10 detected in aqueous solution [1] | beta-carotene found in the aqueous sample [2] | SMILES |
| --- | --- | --- |
| no Co-Q10 detected | – | COC1=C(OC)C(=O)C(C/C=C(\C)CC/C=C(\C)CC/C=C(\C)CC/C=C(\C)CC/C=C(\C)CC/C=C(\C)CC/C=C(\C)CC/C=C(\C)CC/C=C(\C)CCC=C(C)C)=C(C)C1=O [Co-Q10 powder, ubidecarenone] |
| – | No detectable amount | CC1=C(/C=C/C(C)=C/C=C/C(C)=C/C=C/C=C(C)/C=C/C=C(C)/C=C/C2=C(C)CCCC2(C)C)C(C)(C)CCC1 [beta-carotene] |
